Laboratory results as given in patent US12342818B2, “Formulations and methods for controlling invasive amphibians” (priority 2019, dated 2025).

Test system: Adult cane toads (Rhinella marina)
Assay: Cane toad spray trial (formulation sprayed on ventral and/or dorsal surface)
Assay type: in vivo
Settings: for Mortality Rate / Avg. Time Until Breathing & Heart Beat Not Detected / Avg. Time to Unresponsive: 48 hrs trial
Procedure: Adult cane toads (Rhinella marina) (>[…] SUL=snout-urostyle length) were collected around Townsville one or two nights prior to the trials. The toads were kept in two Nally bins with all males in one, and all females in the other for ease of sorting. […]
• 1. The compound and carrier controls were prepared on day of testing. • 2. Toads were weighed, measured and placed in individual buckets and left for 10 minutes to settle. • 3. 1.5 ml of the formulation or carrier or water was delivered to the ventral and/or dorsal surface of each toad via a spray bottle (2×1 ml sprays and accounting for approximately 0.5 ml loss during spraying). • 4. Measurements of toad behaviour and heart rate were recorded at T=5, 10, 15, 20, 25, 30, 45, 60, 75, 90, 105, 120 minutes, plus 4-6 hours, 10-12 hours, 16-18 hours and 24 hours after spraying. If toads were still unconscious but not dead (if there was a heartbeat) within 24 hours, they were checked again at 48 hours. The following measurements were taken at each time interval: • Consciousness: Righting reflex was tested by flipping toads onto their backs and their ability to right themselves was recorded as “fast,” “slow,” or “unresponsive”. Observations were made of the palpebral reflex and involuntary muscular movement: Palpebral reflex was tested by gently tapping the palpebral area with the finger and observing eyelid movement. Involuntary muscular movement was tested via the withdrawal reflex, by grasping each limb distally and extending it. • Breathing/heart rate (did the toad appear to be breathing or was there a detectable heart beat); • Side effects (any other noticeable effects of the formulation such as twitching, distress or agitation, poison gland discharge, muscle rigidness, gasping, or ventral redness).
Even when no vital signs are detected externally during the experimental process, previous studies have shown that toads may appear dead and still have a heartbeat. At the completion of the trials, all animals were anaesthetised with a lethal dose MS222 (tricaine mesylate) then dissected to determine if the heart was still beating and to look for any signs of internal necrosis.

[1] = carrier ethanol, 84.2 g/L, 2 sprays ventral + dorsal, 6 toads
[2] = carrier ethanol, 168.36 g/L, 2 sprays ventral + dorsal, 6 toads
[3] = carrier isopropanol, 84.2 g/L, 2 sprays ventral + dorsal, 6 toads
[4] = carrier isopropanol, 126.3 g/L, 2 sprays dorsal, 6 toads
[5] = carrier isopropanol, 126.3 g/L, 2 sprays dorsal, 24 toads (repeat trial)
[6] = carrier isopropanol, 140 g/L, 2 sprays dorsal, 22 toads
[7] = carrier isopropanol, 168.36 g/L, 2 sprays ventral + dorsal, 6 toads

**Q.** Which “Mortality Rate” value (carrier ethanol, 21.05 g/L, 2 sprays ventral + dorsal, 6 toads) does the source give for `OCCOc1ccccc1` [2-Phenoxyethanol] here?
**A.** Its value is 0%.

**Q.** What about the “Avg. Time Until Breathing & Heart Beat Not Detected” value [1] of the same compound?
**A.** The value was 405 min.

**Q.** And the “Avg. Time to Unresponsive” value [1]?
**A.** The value was 15 min.

**Q.** And the “Mortality Rate” value [1]?
**A.** Its value is 100%.

**Q.** What about the “Avg. Time Until Breathing & Heart Beat Not Detected” value [2] of the same compound?
**A.** Its value is 20 min.

**Q.** And the “Avg. Time to Unresponsive” value [2]?
**A.** Its value is 13.33 min.

**Q.** What about the “Mortality Rate” value [2] of the same compound?
**A.** The value was 100%.

**Q.** What about the “Avg. Time Until Breathing & Heart Beat Not Detected” value [3] of the same compound?
**A.** The value was 40.83 min.

**Q.** What about the “Avg. Time to Unresponsive” value [3] of the same compound?
**A.** Its value is 16.67 min.

**Q.** And the “Mortality Rate” value [3]?
**A.** The value was 100%.

**Q.** What about the “Avg. Time Until Breathing & Heart Beat Not Detected” value [4] of the same compound?
**A.** The value was 23 min.

**Q.** And the “Avg. Time to Unresponsive” value [4]?
**A.** Its value is 18.3 min.

**Q.** What about the “Mortality Rate” value [4] of the same compound?
**A.** The value was 100%.

**Q.** And the “Avg. Time Until Breathing & Heart Beat Not Detected” value [5]?
**A.** Its value is 24.25 min.

**Q.** And the “Avg. Time to Unresponsive” value [5]?
**A.** Its value is 18 min.

**Q.** And the “Mortality Rate” value [5]?
**A.** Its value is 95.8%.

**Q.** And the “Avg. Time Until Breathing & Heart Beat Not Detected” value [6]?
**A.** Its value is 22.05 min.

**Q.** What about the “Avg. Time to Unresponsive” value [6] of the same compound?
**A.** The value was 17.95 min.

**Q.** And the “Mortality Rate” value [6]?
**A.** The value was 100%.

**Q.** And the “Avg. Time Until Breathing & Heart Beat Not Detected” value [7]?
**A.** Its value is 14.17 min.

**Q.** What about the “Avg. Time to Unresponsive” value [7] of the same compound?
**A.** The value was 11.67 min.

**Q.** And the “Mortality Rate” value [7]?
**A.** Its value is 100%.

**Q.** And the “Avg. Time to Unresponsive” value (carrier propylene glycol, 168.36 g/L, 2 sprays ventral + dorsal, 6 toads)?
**A.** Its value is 15.83 min.

**Q.** What about the “Avg. Time to Unresponsive” value (carrier water, 168.36 g/L, 2 sprays ventral + dorsal, 6 toads) of the same compound?
**A.** Its value is 14.166 min.

**Q.** What about the “effectiveness among potential toxicants tested (in different carriers)” value (compared with benzocaine, sodium nitrite, tricaine mesylate, sodium monesnsin) of the same compound?
**A.** Its value is “only real effective candidate”.

**Q.** And the “effectiveness as toad control” value (concentration greater than 40 g/L in a carrier of either ethanol or isopropanol)?
**A.** Its value is “effective control”.

**Q.** What about the “effectiveness as toad control” value (formulations with water as a carrier) of the same compound?
**A.** The value was “not effective”.
